Laboratory results: US9403850B2, “Beta-lactamase inhibitors” (priority 2013, dated 2016)
pIC50: −log10 of the molar value.

Columns and labels:
[1] = target: T1, VIM-2 (Escherichia coli, UniProt Q5U7L7); assay: β-Lactamase enzyme inhibition assay, VIM-2 (nitrocefin substrate); format: biochemical; conditions: nitrocefin substrate 100 μM, 15 min preincubation at 37° C.; read-out: IC50, Class B VIM-2
T1 construct: made in house; host or cells: E. coli BL21(DE3)
Experimental: For Vim-2 metallo β-lactamase, the procedure was identical with the following exceptions, first the protein was not pH adjusted to pH 5 with 50 mM sodium acetate, second, the chromatography step was changed to a 5 ml Q sepharose anion exchange column pre-equilibrated with 50 mM Hepes pH 7.5, and elution of the protein was achieved by a linear gradient of NaCl (0-600 mM). Finally, the VIM-2 purification required a second run (3rd step) on the Q sepharose anion exchange column to achieve acceptable purity (>90%).
An equal volume of diluted enzyme stock was added, and the plates were incubated at 37° C. for 15 min. Nitrocefin was used as substrate for p99 AmpC, VIM-2 and OXA-1 and dispensed into each well at a final concentration of 100 μM. Absorbance at 486 nm was immediately monitored for 10 min using a Biotek Powerwave XS2 microplate spectrophotometer using the GEN5 softweare package (Biotek Instruments, Winooski Vt.). In an analogous fashion, imipenem was used as substrate for Kpc-2 and Cefotaxime was used for SHV-5, while changes in absorbance upon hydrolysis of the β-lactam ring were monitored at 300 nm and 260 nm respectively in UV-transparent 96-well microtiter assay plates. Maximum rates of hydrolysis were compared to those in control wells (without inhibitors), and percentages of enzyme inhibition were calculated for each concentration of inhibitor. The concentration of inhibitor needed to reduce the initial rate of hydrolysis of substrate by 50% (IC50) was calculated as the residual activity of β-lactamase at 486 nm using GraFit version 7 kinetics software package (Erithacus Software, Surrey, UK).
Using the methodology described above, examples of the current invention were evaluated for their ability to inhibit β-lactamase enzymes from all four Ambler classifications (A through D). […] NT=Not tested.

[2] = test system: E. coli ESBL4 expressing CTX-M-15; assay: Broth microdilution MIC assay, partner ceftazidime;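 further: ceftazidime held fixed at 4 µg/mL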; format: cell-based; conditions: Escherichia coli, read-out: MIC of Exemplary Compounds in presence of fixed β-lactams, Fixed CAZ, E. coli ESBL4 CTX-M-15
[3] = test system: E. cloacae 144200 expressing Class C P99 AmpC; assay: Broth microdilution MIC assay, partner ceftazidime;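 further: ceftazidime held fixed at 4 µg/mL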; format: cell-based; conditions: Enterobacter cloacae, read-out: MIC of Exemplary Compounds in presence of fixed β-lactams, Fixed CAZ, E. cl. 144200 p99 AmpC
[4] = test system: K. pneumoniae 156319 expressing KPC-3; assay: Broth microdilution MIC assay, partner meropenem; format: cell-based; conditions: Klebsiella pneumoniae, read-out: MIC of Exemplary Compounds in presence of fixed β-lactams, Fixed Mero, K.P. 156319 KPC-3
[5] = test system: P. aeruginosa Ps296 expressing VIM-2; assay: Broth microdilution MIC assay, partner meropenem; format: cell-based; conditions: Pseudomonas aeruginosa, read-out: MIC of Exemplary Compounds in presence of fixed β-lactams, Fixed Mero, P. aerug. Ps296 VIM-2
[6] = test system: K. pneumoniae A-1797 expressing KPC-2 and VIM-4; assay: Broth microdilution MIC assay, partner meropenem; format: cell-based; conditions: Klebsiella pneumoniae, read-out: MIC of Exemplary Compounds in presence of fixed β-lactams, Fixed Mero, K.P. A-1797 KPC-2 VIM-4
[7] = test system: S. aureus MSSA-7 producing penicillinase PC-1; assay: Broth microdilution MIC assay, partner piperacillin; format: cell-based; conditions: Staphylococcus aureus, fixed piperacillin 4 μg/mL, read-out: MIC of Exemplary Compounds in presence of fixed β-lactams, Fixed Pip, S. aureus MSSA-7 PC-1

Compound	pIC50 [1]	MIC [2]	MIC [3]	MIC [4]	MIC [5]	MIC [6]	MIC [7]
CN(C)Cc1ccc(C(=O)N[C@H]2Cc3cccc(C(=O)O)c3OB2O)cc1N [Example 18, (R)-3-(3-amino-4-((dimethylamino)methyl)benzamido)-2-hydroxy-3,4-dihydro-2H-benzo[e][1,2]oxaborinine-8-carboxylic acid]	6.00 to 7.00	< 4 µg/mL	< 4 µg/mL	< 4 µg/mL	< 4 µg/mL	< 4 µg/mL	< 4 µg/mL
CNCc1ccc(C(=O)N[C@H]2Cc3cccc(C(=O)O)c3OB2O)cc1CNC [Example 19, (R)-3-(3,4-bis((methylamino)methyl)benzamido)-2-hydroxy-3,4-dihydro-2H-benzo[e][1,2]oxaborinine-8-carboxylic acid]	> 7.00	< 4 µg/mL	< 4 µg/mL	< 4 µg/mL	< 4 µg/mL	< 4 µg/mL	< 4 µg/mL
NCc1ccc(CC(=O)N[C@H]2Cc3cccc(C(=O)O)c3OB2O)cc1CN [Example 20, (R)-3-(2-(3,4-bis(aminomethyl)phenyl)acetamido)-2-hydroxy-3,4-dihydro-2H-benzo[e][1,2]oxaborinine-8-carboxylic acid]	> 7.00	< 4 µg/mL	< 4 µg/mL	< 4 µg/mL	< 4 µg/mL	< 4 µg/mL	< 4 µg/mL
CN(C)Cc1ccc(C(=O)N[C@H]2Cc3cccc(C(=O)O)c3OB2O)cc1NC(=O)[C@@H](N)CN [Example 21, (R)-3-(3-((S)-2,3-diaminopropanamido)-4-((dimethylamino)methyl)benzamido)-2-hydroxy-3,4-dihydro-2H-benzo[e][1,2]oxaborinine-8-carboxylic acid]	> 7.00	< 4 µg/mL	< 4 µg/mL	8 to 32 µg/mL	> 32 µg/mL	8 to 32 µg/mL	8 to 32 µg/mL
Cc1ccc(C(=O)N[C@H]2Cc3cccc(C(=O)O)c3OB2O)cc1NC(=O)[C@@H](N)CN [Example 22, (R)-3-(3-((S)-2,3-diaminopropanamido)-4-methylbenzamido)-2-hydroxy-3,4-dihydro-2H-benzo[e][1,2]oxaborinine-8-carboxylic acid]	6.00 to 7.00	< 4 µg/mL	< 4 µg/mL	< 4 µg/mL	> 32 µg/mL	8 to 32 µg/mL	< 4 µg/mL
Cc1ccc(C(=O)N[C@H]2Cc3cccc(C(=O)O)c3OB2O)cc1N [Example 23, (R)-3-(3-amino-4-methylbenzamido)-2-hydroxy-3,4-dihydro-2H-benzo[e][1,2]oxaborinine-8-carboxylic acid]	6.00 to 7.00	< 4 µg/mL	< 4 µg/mL	< 4 µg/mL	8 to 32 µg/mL	8 to 32 µg/mL	< 4 µg/mL
O=C(N[C@H]1Cc2cccc(C(=O)O)c2OB1O)c1ccc(-c2ccccn2)cc1 [Example 24, (R)-2-hydroxy-3-(4-(pyridin-2-yl)benzamido)-3,4-dihydro-2H-benzo[e][1,2]oxaborinine-8-carboxylic acid]	6.00 to 7.00	< 4 µg/mL	< 4 µg/mL	8 to 32 µg/mL	8 to 32 µg/mL	8 to 32 µg/mL	< 4 µg/mL
N=C(N)NCc1ccc(C(=O)N[C@H]2Cc3cccc(C(=O)O)c3OB2O)cc1CNC(=N)N [Example 25, (R)-3-(3,4-bis(guanidinomethyl)benzamido)-2-hydroxy-3,4-dihydro-2H-benzo[e][1,2]oxaborinine-8-carboxylic acid]	> 7.00	< 4 µg/mL	< 4 µg/mL	< 4 µg/mL	< 4 µg/mL	< 4 µg/mL	< 4 µg/mL
O=C(N[C@H]1Cc2cccc(C(=O)O)c2OB1O)c1ccc2[nH]ccc2c1 [Example 26, (R)-2-hydroxy-3-(1H-indole-5-carboxamido)-3,4-dihydro-2H-benzo[e][1,2]oxaborinine-8-carboxylic acid]	6.00 to 7.00	< 4 µg/mL	< 4 µg/mL	< 4 µg/mL	8 to 32 µg/mL	8 to 32 µg/mL	< 4 µg/mL
O=C(N[C@H]1Cc2cccc(C(=O)O)c2OB1O)c1ccc(-c2ccncc2)cc1 [Example 27, (R)-2-hydroxy-3-(4-(pyridin-4-yl)benzamido)-3,4-dihydro-2H-benzo[e][1,2]oxaborinine-8-carboxylic acid]	5.00 to 6.00	< 4 µg/mL	< 4 µg/mL	> 32 µg/mL	> 32 µg/mL	> 32 µg/mL	< 4 µg/mL
O=C(N[C@H]1Cc2cccc(C(=O)O)c2OB1O)c1ccc2ncccc2c1 [Example 28, (R)-2-hydroxy-3-(quinoline-6-carboxamido)-3,4-dihydro-2H-benzo[e][1,2]oxaborinine-8-carboxylic acid]	5.00 to 6.00	< 4 µg/mL	< 4 µg/mL	< 4 µg/mL	> 32 µg/mL	8 to 32 µg/mL	< 4 µg/mL
O=C(N[C@H]1Cc2cccc(C(=O)O)c2OB1O)c1ccc2nccnc2c1 [Example 29, (R)-2-hydroxy-3-(quinoxaline-6-carboxamido)-3,4-dihydro-2H-benzo[e][1,2]oxaborinine-8-carboxylic acid]	5.00 to 6.00	< 4 µg/mL	< 4 µg/mL	< 4 µg/mL	> 32 µg/mL	> 32 µg/mL	< 4 µg/mL
O=C(N[C@H]1Cc2cccc(C(=O)O)c2OB1O)c1ccc2cc[nH]c2c1 [Example 30, (R)-2-hydroxy-3-(1H-indole-6-carboxamido)-3,4-dihydro-2H-benzo[e][1,2]oxaborinine-8-carboxylic acid]	6.00 to 7.00	< 4 µg/mL	< 4 µg/mL	< 4 µg/mL	< 4 µg/mL	8 to 32 µg/mL	< 4 µg/mL
O=C(O)c1cccc2c1OB(O)[C@@H](NC(=O)c1cccc3cc[nH]c13)C2 [Example 31, (R)-2-hydroxy-3-(1H-indole-7-carboxamido)-3,4-dihydro-2H-benzo[e][1,2]oxaborinine-8-carboxylic acid]	5.00 to 6.00	< 4 µg/mL	< 4 µg/mL	< 4 µg/mL	8 to 32 µg/mL	> 32 µg/mL	< 4 µg/mL
O=C(O)c1cccc2c1OB(O)[C@@H](NC(=O)c1cccc3[nH]ccc13)C2 [Example 32, (R)-2-Hydroxy-3-[(1H-indole-4-carbonyl)-amino]-3,4-dihydro-2H-benzo[e][1,2]oxaborinine-8-carboxylic acid]	6.00 to 7.00	< 4 µg/mL	< 4 µg/mL	< 4 µg/mL	< 4 µg/mL	> 32 µg/mL	< 4 µg/mL
O=C1Cc2cc(C(=O)N[C@H]3Cc4cccc(C(=O)O)c4OB3O)ccc2N1 [Example 33, (R)-2-Hydroxy-3-[(2-oxo-2,3-dihydro-1H-indole-5-carbonyl)-amino]-3,4-dihydro-2H-benzo[e][1,2]oxaborinine-8-carboxylic acid]	6.00 to 7.00	< 4 µg/mL	< 4 µg/mL	< 4 µg/mL	< 4 µg/mL	8 to 32 µg/mL	< 4 µg/mL
O=C(N[C@H]1Cc2cccc(C(=O)O)c2OB1O)c1ccc2nc[nH]c2c1 [Example 34, (R)-3-[(3H-Benzoimidazole-5-carbonyl)-amino]-2-hydroxy-3,4-dihydro-2H-benzo[e][1,2]oxaborinine-8-carboxylic acid]	6.00 to 7.00	< 4 µg/mL	< 4 µg/mL	< 4 µg/mL	< 4 µg/mL	8 to 32 µg/mL	< 4 µg/mL
